Results from PubChem BioAssay AID1053148 (Broad Institute, 2014).

System: HepG2 ERK1/2 phosphorylation, Western blot imaging
Test: ERK1/2 phosphorylation increase by Trib1 inducers, late-stage follow-up, mechanism study for Trib1 inducer project, cell-based, HepG2, Western blot imaging, cherry-pick (AID 1053148)
Conditions: stronger effect = higher value

With CN1C(=O)c2cc(NC(=O)c3ccc(C(F)(F)F)cc3)ccc2OC[C@@H]2O[C@H](CC(=O)NC3Cc4ccccc4C3)CC[C@@H]21 the fold induction x10 was 2.
